Test results published in patent US20210283110A1, “COMPOUND FOR USE IN THE TREATMENT OF A DISEASE CHARACTERIZED BY DYSREGULATED MUCUS PRODUCTION AND/OR SECRETION” (UNIVERSITÄT REGENSBURG, priority 2018, published 2021).

Assays:
[1] = test system: Calu3 airway epithelial cells; test: LPS-induced IL-8 release by Calu3 cells (ELISA); type: cell-based, human; conditions: Calu3 cells exposed to LPS for 48 hrs
Protocol: Mouse models were performed according to the previous example. For investigating mucus, IL-8 release, and leukocytes, tissues were fixed using 4% paraformaldehyde (PFA), 0.2% picric acid and 3.4% sucrose in PBS and washed in methanol before embedding in paraffin. Mucus was analyzed using standard Periodic acid-Schiff (PAS) or alcian blue staining. MUC5AC was stained using anti-MUC5AC mouse antibody (1:200, Abcam, ab3649) and a secondary antibody conjugated with Alexa488 (Life Technologies, A-21206). Nuclei were stained with Hoe33342 (0.1 μg/ml PBS, Aplichem, Darmstadt, Germany). Quantikine ELISA kits (R&D systems) were used to measure secretion of the cytokine IL-8 by Calu3 cells.
Calu3 airway epithelial cells were exposed to LPS for 48 hrs and the release of the neutrophil attractor interleukin 8 (IL-8) was measured. […] Upon stimulation with the Th2 cytokine IL-13, Calu3 cells produced MUC5AC. […] Taken together, airway epithelial knockout of TMEM16A caused a defect in mucus secretion, while mucus production was retained (FIG. 16C).

[2] = test system: freshly isolated crypt cells; test: ATP-induced Ca2+ rise in freshly isolated crypt cells (Fura-2); type: cell-based, mouse; conditions: low concentrations of niclosamide
Protocol: All methods were carried out as specified in the previous examples. For the measurements of Ca^2+, crypts were isolated from inverted proximal mouse colons using Ca^2+-free Ringer solution with 1 mM DTT and 1 μM indomethacin for 20 min at 37° C. Crypts were loaded with 10 μM Fura2-AM (Biotum, USA) and 1 mg/ml BSA (Sigma-Aldrich) in ringer solution for 1 h at RT. Intracellular Ca^2+ was measured by loading crypts with […] Fura-2/AM and 0.02% Pluronic F-127 (Life Technologies, Germany) in ringer solution for 1 h at room temperature. Fluorescence was detected in cells perfused with Ringer's solution at 37° C. using an inverted microscope (Axiovert S100, Zeiss, Germany) and a high-speed polychromator system (VisiChrome, Germany). Fura-2 was excited at 340/380 nm, and emission was recorded between 470 and 550 nm using a CoolSnap camera (CoolSnap HQ, Visitron).
It was examined whether niclosamide inhibits intestinal mucus secretion. To this end, niclosamide was added to the perfusate. […] The present inventors detected reduced Ca^2+ increase upon ATP-stimulation of freshly isolated crypt cells from Vil1-Cre TMEM16F^flox/flox mice. […] Increase in FM4-64 fluorescence in the plasma membrane is a marker for membrane exocytosis. The present inventors detected that ATP-stimulation (but not cholinergic stimulation) of HEK293 cells expressing TMEM16F induced FM4-64 fluorescence, i.e. exocytosis.

[3] = test system: TMEM16A or TMEM16F; test: Expression of TMEM16A / TMEM16F after niclosamide; type: cell-based
[4] = biological target: T1, TMEM16A (Homo sapiens, UniProt Q5XXA6); test: ATP-induced current in HT29 cells expressing TMEM16A, patch clamp; type: cell-based; set-up: expressed in transfected cells; conditions: 1 μM compound applied simultaneously with ATP (wo μM), #p<0.01
T1 sequence (Q5XXA6 1-986): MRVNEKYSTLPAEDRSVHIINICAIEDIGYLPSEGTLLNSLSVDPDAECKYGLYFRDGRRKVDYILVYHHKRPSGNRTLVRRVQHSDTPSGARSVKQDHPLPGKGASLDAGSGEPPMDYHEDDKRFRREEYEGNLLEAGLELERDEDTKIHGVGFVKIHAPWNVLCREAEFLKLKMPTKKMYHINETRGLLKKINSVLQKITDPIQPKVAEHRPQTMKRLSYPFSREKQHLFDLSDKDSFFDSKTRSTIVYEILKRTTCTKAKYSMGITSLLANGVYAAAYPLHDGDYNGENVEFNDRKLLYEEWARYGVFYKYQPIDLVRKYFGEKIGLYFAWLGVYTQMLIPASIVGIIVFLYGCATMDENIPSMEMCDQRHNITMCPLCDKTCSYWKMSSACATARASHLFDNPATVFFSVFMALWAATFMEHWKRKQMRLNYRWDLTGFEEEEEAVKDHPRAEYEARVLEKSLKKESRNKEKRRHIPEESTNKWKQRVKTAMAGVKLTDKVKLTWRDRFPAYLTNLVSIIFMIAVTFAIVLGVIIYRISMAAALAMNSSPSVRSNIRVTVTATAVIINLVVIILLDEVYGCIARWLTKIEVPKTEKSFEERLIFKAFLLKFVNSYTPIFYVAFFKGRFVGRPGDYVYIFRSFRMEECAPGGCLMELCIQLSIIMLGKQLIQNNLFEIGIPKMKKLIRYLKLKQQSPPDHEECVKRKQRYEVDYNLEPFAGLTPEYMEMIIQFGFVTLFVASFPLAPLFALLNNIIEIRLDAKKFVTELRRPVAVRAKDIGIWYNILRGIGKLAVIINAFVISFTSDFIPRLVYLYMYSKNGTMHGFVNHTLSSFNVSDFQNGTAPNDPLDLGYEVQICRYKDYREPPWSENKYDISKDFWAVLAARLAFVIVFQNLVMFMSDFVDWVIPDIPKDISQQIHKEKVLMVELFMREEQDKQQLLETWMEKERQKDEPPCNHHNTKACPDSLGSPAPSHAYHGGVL
Description: FIG. 2: ATP-induced current in HT29 cells expressing TMEM16A in an electrophysiological patch clamp investigation.
ATP was applied at a concentration of wo μM.

[5] = test system: endogenous TMEM16A; test: Iodide quenching of YFP in HT29 cells stimulated with ionomycin; type: cell-based
Protocol: FIG. 15: Inhibition of TMEM16A and TMEM16F by niclosamide. • A) TMEM16A whole cell currents in overexpressing HEK293 cells. […] Rate of YFP quenching (arbitrary units (au/second), when applying 20 mM iodide to the extracellular bath solution. HT29 cells stably overexpressing YFP were stimulated with […] ionomycin. 100,000 cells were seeded/well. Mean±SEM; (number of experiments) #significant inhibition when compared to the absence of the inhibitor (p<0.05; unpaired t-test); *significant activation by UTP (paired t-test).
Similar to TMEM16A, also overexpressed TMEM16F was inhibited by niclosamide (FIG. 15D). The effect of niclosamide was also examined on endogenous TMEM16A expressed in HT29 colonic carcinoma cells, which were stably transfected with iodide-sensitive yellow fluorescent protein (YFP). TMEM16A was activated by ionomycin and TMEM16A currents were measured as iodide quenching.

Structure (SMILES): O=C(Nc1ccc([N+](=O)[O-])cc1Cl)c1cc(Cl)ccc1O [niclosamide, 5-chloro-N-(2-chloro-4-nitrophenyl)-2-hydroxybenzamide]
- IL-8 release [1]: clearly inhibited
- ATP-induced Ca2+ rise [2]: potently inhibited
- expression of either TMEM16A or TMEM16F [3]: did not change
- ATP-induced ion current arising from TMEM16A activation [4]: significantly reduced
- potency compared with CaCCinhAO1 or dichlorophen ([5]; HT29 YFP iodide quenching): more potent
- inhibition of endogenous TMEM16A (iodide quenching of YFP) ([5]; HT29 cells stably expressing YFP, ionomycin, 20 mM iodide): low nanomolar range
